# Laboratory results as given in ChEMBL document CHEMBL1123372, “6,7-Dichloro-1-(3,4,5-trimethoxybenzyl)-1,2,3,4-tetrahydroisoquinoline . A structurally novel beta-adrenergic receptor blocking agent” (J Med Chem, 1986).
# Assays:
# Assay type in all cases: physicochemical
# [1] = Compound was evaluated for distribution coefficient; settings: octanol/water
# [2] = Partition coefficient (logP); settings: octanol/water
# [3] = Compound was evaluated for pKa by titration of the compounds in 1:2 methyl alcohol and water; settings: read-out: pKa app
# [4] = Compound was evaluated for pKa by titration of the compounds in 1:2 methyl alcohol and water.; settings: read-out: pKa app
pKa [4],SMILES,logD [1],logP [2],pKa [3]
–,CC(C)NCC(O)c1ccc(Cl)c(Cl)c1 (stereo unspecified) [DICHLOROISOPROTERENOL],1.26,2.55,8.7
7.6,COc1cc(C[C@@H]2NCCc3cc(O)c(O)cc32)cc(OC)c1OC [TRETOQUINOL],1.79,2.23,–
